Values joined by “and” are separate entries in the source; they are usually repeats but may differ in a detail not shown here. Identical values can stand only once.
Legend:
[1] = target: T1, EP4 S73A (Homo sapiens, UniProt P35408, S73A); assay: GloSensor cAMP assay, antagonism of PGE2-induced cAMP; type: cell-based; conditions: for cAMP activity (∆pIC50 from EP4 WT): Grapiprant, S73A; for ΔpIC50: PGE2 0.5 nM, pIC50 mutant - pIC50 WT, mean
T1 construct: The full-length EP2 or EP4 was cloned into the pcDNA3.1 vector; FLAG (N); expressed in transfected cells; host or cells: AD293 cells

[2] = target: T2, constitutively active EP4 S73A (Homo sapiens, UniProt P35408, S73A); assay: GloSensor cAMP assay, inhibition of constitutive activity; type: cell-based; conditions: for ΔpIC50: no PGE2, pIC50 mutant - pIC50 WT, mean
T2 construct: The full-length EP2 or EP4 was cloned into the pcDNA3.1 vector (Invitrogen), incorporating an N-terminal FLAG tag; expressed in transfected cells; host or cells: AD293

[3] = target: T3, EP4-L99M (Homo sapiens, UniProt P35408, L99M); assay: GloSensor cAMP assay, antagonism of PGE2-induced cAMP, chimeric studies; type: cell-based; conditions: for ΔpIC50: PGE2 induced, pIC50 mutant - pIC50 WT, mean
T3 construct: The full-length EP2 or EP4 was cloned into the pcDNA3.1 vector (Invitrogen), incorporating an N-terminal FLAG tag; expressed in transfected cells; host or cells: AD293
Protocol: The full-length EP2 or EP4 was cloned into the pcDNA3.1 vector (Invitrogen), incorporating an N-terminal FLAG tag. AD293 cells were seeded in six-well plates containing DMEM supplemented with 10% dialyzed FBS 1 day prior to transfection. Following overnight growth, cells were transfected with a 1:1 ratio of receptor construct and GloSensor22F cAMP biosensor (Promega) plasmids.
Twenty-four hours post-transfection, the cells were transferred to CO2-independent media containing 2% GloSensor cAMP Reagent (Promega) and distributed into 384-well assay plates at a density of 4000 cells per well in 10 μL. […] The plates were then incubated at 37 °C for an additional hour before luminescence measurements were taken using an EnVision plate reader.
Data analysis was performed using GraphPad Prism software v8.0.1. A nonlinear regression analysis, employing a sigmoidal dose–response model, was conducted to determine the Emax values and half-maximum inhibitory concentrations (IC50) for each compound tested.

[4] = target: EP4; set-up: method as in Nakao et al, 2007; conditions: [3H]-PGE2 binding assay; ref Nakao et al, 2007; cited from earlier work
[5] = target: T4, EP2 M116A (Homo sapiens, UniProt P43116, M116A); assay: GloSensor cAMP assay, antagonism of PGE2-induced cAMP; type: cell-based; conditions: 1 h, single experiments 1st-3rd, Fig. 3D, read-out: % cAMP activity (normalized to WT)
T4 construct: The full-length EP2 or EP4 was cloned into the pcDNA3.1 vector; FLAG (N); expressed in transfected cells; host or cells: AD293 cells
Method in brief: (§1)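 Read-out is GloSensor luminescence from AD293 cells co-expressing FLAG-tagged EP2 variant and GloSensor22F biosensor, transfected at a 1:1 plasmid ratio. Cells were plated at 4000 per well in CO2-independent medium containing 2% cAMP reagent, incubated 1 h at 37 °C, then read.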

[6] = target: T5, EP2 W186A (Homo sapiens, UniProt P43116, W186A); assay: as above; type: cell-based; conditions: 1 h, single experiments 1st-3rd, Fig. 3D, read-out: % cAMP activity (normalized to WT)
T5 construct: The full-length EP2 or EP4 was cloned into the pcDNA3.1 vector; FLAG (N); expressed in transfected cells; host or cells: AD293 cells
Method in brief: as §1

[7] = tested on: EP2; set-up: method as in af Forselles et al, 2011; conditions: against PGE2-induced cAMP signaling in GloSensor cAMP assay; ref af Forselles et al, 2011; cited from earlier work

T4 sequence (P43116 whole entry M116A): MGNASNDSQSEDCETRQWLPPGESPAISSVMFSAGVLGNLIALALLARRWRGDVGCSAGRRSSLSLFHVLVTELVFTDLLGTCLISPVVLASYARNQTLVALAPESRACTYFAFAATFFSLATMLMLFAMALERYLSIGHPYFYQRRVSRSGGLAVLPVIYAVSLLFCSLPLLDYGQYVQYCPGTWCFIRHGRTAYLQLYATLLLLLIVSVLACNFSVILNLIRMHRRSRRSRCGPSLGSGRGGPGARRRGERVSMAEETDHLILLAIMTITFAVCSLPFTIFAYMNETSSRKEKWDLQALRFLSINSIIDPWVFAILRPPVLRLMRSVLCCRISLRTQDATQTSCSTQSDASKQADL
T3 sequence (P35408 whole entry L99M): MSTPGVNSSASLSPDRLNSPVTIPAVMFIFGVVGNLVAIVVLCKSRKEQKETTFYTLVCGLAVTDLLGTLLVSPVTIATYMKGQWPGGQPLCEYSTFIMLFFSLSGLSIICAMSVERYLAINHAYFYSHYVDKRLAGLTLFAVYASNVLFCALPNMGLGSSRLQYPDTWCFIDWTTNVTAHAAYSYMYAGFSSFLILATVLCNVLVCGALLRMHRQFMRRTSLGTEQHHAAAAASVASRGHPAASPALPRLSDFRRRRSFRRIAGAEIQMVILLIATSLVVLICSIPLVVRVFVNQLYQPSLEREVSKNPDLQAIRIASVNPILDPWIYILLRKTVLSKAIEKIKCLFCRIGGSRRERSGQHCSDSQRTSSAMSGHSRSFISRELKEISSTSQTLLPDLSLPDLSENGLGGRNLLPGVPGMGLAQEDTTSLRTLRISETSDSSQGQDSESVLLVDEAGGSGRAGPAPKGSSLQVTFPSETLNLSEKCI
T2 sequence (P35408 whole entry S73A): as the sequence (P35408 whole entry L99M) above, with S73A, M99L counted along it
T1 sequence (P35408 whole entry S73A): as the sequence (P35408 whole entry L99M) above, with S73A, M99L counted along it
T5 sequence (P43116 whole entry W186A): as the sequence (P43116 whole entry M116A) above, with A116M, W186A counted along it

CCc1nc2c(C)nc(C)cc2n1-c1ccc(CCNC(=O)NS(=O)(=O)c2ccc(C)cc2)cc1 [Grapiprant]
IC50 [1]: 5.62 nM
remaining activity at 0.01 µM ([1]; 1 h, Grapiprant log([M]) -8, read-out: % cAMP activity (normalized to WT)): 11.4%
remaining activity at 0.001 µM ([1]; 1 h, Grapiprant log([M]) -9, read-out: % cAMP activity (normalized to WT)): 21.5%
remaining activity at 0.0001 µM ([1]; 1 h, Grapiprant log([M]) -10, read-out: % cAMP activity (normalized to WT)): 24.9%
remaining activity at 10 pM ([1]; 1 h, Grapiprant log([M]) -11, read-out: % cAMP activity (normalized to WT)): 27.6%
remaining activity at 1 pM ([1]; 1 h, Grapiprant log([M]) -12, read-out: % cAMP activity (normalized to WT)): 23.6%
cAMP activity (∆pIC50 from EP4 WT) ([1]; Mean): 0.985
cAMP activity (∆pIC50 from EP4 WT) ([1]; single experiments 1st-3rd): 1.017 and 1.087 and 0.851
ΔpIC50 [1]: 0.99 ± 0.07
ΔpIC50 ([1]; listed as grapiprant): enhanced the antagonism
IC50 [2]: 2.19 nM
remaining activity at 10 µM ([2]; 1 h, Grapiprant log([M]) -5.00, EP4-S73A, read-out: % cAMP activity (normalized to WT)): 12.1%
remaining activity at 1 µM ([2]; 1 h, Grapiprant log([M]) -6.00, EP4-S73A, read-out: % cAMP activity (normalized to WT)): 13.5%
remaining activity at 0.1 µM ([2]; 1 h, Grapiprant log([M]) -7.00, EP4-S73A, read-out: % cAMP activity (normalized to WT)): 20.4%
remaining activity at 0.01 µM ([2]; 1 h, Grapiprant log([M]) -8.00, EP4-S73A, read-out: % cAMP activity (normalized to WT)): 38.9%
remaining activity at 0.001 µM ([2]; 1 h, Grapiprant log([M]) -9.00, EP4-S73A, read-out: % cAMP activity (normalized to WT)): 127%
remaining activity at 1 pM ([2]; 1 h, Grapiprant log([M]) -12.00, EP4-S73A, read-out: % cAMP activity (normalized to WT)): 170%
Grapiprant cAMP activity (∆pIC50 from EP4 WT), Mean ([2]; S73A, Mean): 0.215
Grapiprant cAMP activity (∆pIC50 from EP4 WT) ([2]; S73A, single experiments 1st-3rd): 0.364 and 0.097 and 0.184
ΔpIC50 [2]: 0.22 ± 0.08
ΔpIC50 ([2]; listed as grapiprant): hardly influenced antagonistic potency
remaining activity at 0.1 µM ([3]; 1 h, Grapiprant log([M]) -7, single experiments 1st-3rd, Fig. S7C, read-out: % cAMP activity (normalized to WT)): 52.4%
remaining activity at 0.0001 µM ([3]; 1 h, Grapiprant log([M]) -10, single experiments 1st-3rd, Fig. S7C, read-out: % cAMP activity (normalized to WT)): 83.5%
remaining activity at 1 pM ([3]; 1 h, Grapiprant log([M]) -12, single experiments 1st-3rd, Fig. S7C, read-out: % cAMP activity (normalized to WT)): 85.6%
ΔpIC50 [3]: -0.23 ± 0.07
ΔpIC50 ([3]; listed as grapiprant): slightly decreased the antagonistic potency
Ki [4]: 13 nM

COc1ccc2cc(OCC3(C(=O)O)CN(C(=O)c4ccc(F)cc4)C3)ccc2c1 [PF-04418948]
remaining activity at 1 µM ([5]; PF-04418948 log([M]) -6): 5.4%
remaining activity at 0.1 µM ([5]; PF-04418948 log([M]) -7): 26.1%
remaining activity at 0.01 µM ([5]; PF-04418948 log([M]) -8): 58.4%
remaining activity at 0.001 µM ([5]; PF-04418948 log([M]) -9): 56.2%
remaining activity at 0.0001 µM ([5]; PF-04418948 log([M]) -10): 64.8%
remaining activity at 10 pM ([5]; PF-04418948 log([M]) -11): 75.1%
remaining activity at 1 pM ([5]; PF-04418948 log([M]) -12): 77.8%
remaining activity at 1 µM ([6]; PF-04418948 log([M]) -6): 7.94%
remaining activity at 0.1 µM ([6]; PF-04418948 log([M]) -7): 18%
remaining activity at 0.01 µM ([6]; PF-04418948 log([M]) -8): 24.6%
remaining activity at 0.001 µM ([6]; PF-04418948 log([M]) -9): 23.9%
remaining activity at 0.0001 µM ([6]; PF-04418948 log([M]) -10): 24.4%
remaining activity at 10 pM ([6]; PF-04418948 log([M]) -11): 29.3%
remaining activity at 1 pM ([6]; PF-04418948 log([M]) -12): 27.9%
Kb [7]: 1.8 nM

— paper PMC12669672, “Structural insights into selective and dual antagonism of EP2 and EP4 prostaglandin receptors” (The EMBO Journal, 2025)
